ChEMBL document CHEMBL1128957, “In vivo potent antifilarial -carbolines” (1996)
The source made the active and inactive calls. The rule behind the calls is not given here.

Legend:
Rattus norvegicus [1] = assay: In vivo microfilaricidal activity against Litomosoides carinii in cotton rats at a dose of 30 mg/kg for 5 days administered i.p.; format: functional; conditions: route intraperitoneal
Rattus norvegicus [2] = assay: In vivo macrofilaricidal activity against Litomosoides carinii in cotton rats at a dose of 30 mg/kg for 5 days administered i.p.; format: functional; conditions: route intraperitoneal
Rattus norvegicus [3] = species: Rattus norvegicus; assay: Percentage of sterilization of surviving female worm Acanthocheilonema viteae in Mastomys natalensis: Inactive; format: functional, organism-based
Rattus norvegicus [4] = assay: In vivo macrofilaricidal activity against Acanthocheilonema viteae in Mastomys natalensis at a dose of 50 mg/kg for 5 days administered i.p.; format: functional; conditions: route intraperitoneal
Rattus norvegicus [5] = assay: In vivo microfilaricidal activity against A. viteae in Mastomys natalensis at a dose of 50 mg/kg for 5 days administered i.p.: Inactive; format: functional, organism-based; parameters: dose 50 mg/kg
Rattus norvegicus [6] = assay: In vivo macrofilaricidal activity against A. viteae in Mastomys natalensis at a dose of 350 mg/kg for 5 days administered i.p.: Inactive; format: functional, organism-based; parameters: dose 350 mg/kg
Rattus norvegicus [7] = assay: In vivo macrofilaricidal activity against Litomosoides carinii in cotton rats at a dose of 6 mg/kg for 5 days administered i.p.: Inactive; format: functional, organism-based; parameters: dose 6 mg/kg
Rattus norvegicus [8] = assay: In vivo macrofilaricidal activity against A. viteae in Mastomys natalensis at a dose of 50 mg/kg for 5 days administered i.p.: Inactive; format: functional, organism-based; parameters: dose 50 mg/kg
Rattus norvegicus [9] = assay: In vivo microfilaricidal activity against Litomosoides carinii in cotton rats at a dose of 30 mg/kg for 5 days administered i.p.: Inactive; format: functional, organism-based; parameters: dose 30 mg/kg
Rattus norvegicus [10] = assay: In vivo macrofilaricidal activity against Litomosoides carinii in cotton rats at a dose of 30 mg/kg for 5 days administered i.p.: Inactive; format: functional, organism-based; parameters: dose 30 mg/kg
Rattus norvegicus [11] = species: Rattus norvegicus; assay: Percentage of sterilization of surviving female worm Acanthocheilonema viteae: Inactive; format: functional, organism-based
Rattus norvegicus [12] = species: Rattus norvegicus; assay: Percentage of sterilization of surviving female worm Acanthocheilonema viteae in Mastomys natalensis; format: functional

| Compound | Death (Rattus norvegicus [2]) | Activity (Rattus norvegicus [3]) | Death (Rattus norvegicus [4]) | Death (Rattus norvegicus [5]) | Death (Rattus norvegicus [8]) | Death (Rattus norvegicus [9]) | Death (Rattus norvegicus [10]) | other results |
| --- | --- | --- | --- | --- | --- | --- | --- | --- |
| N#Cc1[nH]ccc2c3ccccc3nc1-2 | 78% | inactive | 50% | inactive |  |  |  | Death (Rattus norvegicus [1]): 59% |
| CCN(CC)C(=O)N1CCN(C)CC1.O=C(O)CC(O)(CC(=O)O)C(=O)O [DIETHYLCARBAMAZINE CITRATE] |  | inactive |  |  |  |  |  | Death (Rattus norvegicus [6]): inactive; Death (Rattus norvegicus [7]): inactive |
| COC(=O)C1NCCc2c1[nH]c1ccccc21 (stereo not given) | 81% | inactive |  |  | inactive | inactive |  |  |
| COC(=O)c1nccc2c1[nH]c1ccccc12 |  |  |  |  | inactive | inactive | inactive | Activity (Rattus norvegicus [11]): inactive |
| NC(=O)c1nccc2c1[nH]c1ccccc12 |  |  | 50% |  |  | inactive | inactive | Activity (Rattus norvegicus [12]): 100 |
| NC(=O)C1NCCc2c1[nH]c1ccccc21 (stereo not given) |  | inactive | 84% | inactive |  | inactive | inactive |  |
